# Results from ChEMBL document CHEMBL3885861, “Open TG-GATES”.
# Species: Rattus norvegicus
# Assay: Open TG-GATES - Regimen: Daily Repeat
# Type: toxicity, organism-based, Sprague-Dawley
# Design: regimen Daily Repeat, gender Male, age 6 weeks
# Details: in vivo, po, route gavage; for APTT / Bas / Eos / Fbg / Hb / Ht / Lym / MCH / MCHC / MCV / Mono / PT / Plat / RBC / Ret / WBC / Neu: tissue Blood; for ALP / ALT / BUN / CRE / DBIL / GLC / IP / K / LDH / Na / PL / RALB / TBIL / TC / TG / TP / gamma-GTP: tissue Plasma
# [1] = 0 mg/kg, 72 h, dose level Control, time 3 day
# [2] = 0 mg/kg, […], dose level Control, time 7 day
# [3] = 0 mg/kg, […], dose level Control, time 14 day
# [4] = 0 mg/kg, […], dose level Control, time 28 day
# [5] = 60 mg/kg, 72 h, dose level Low, time 3 day
# [6] = 60 mg/kg, […], dose level Low, time 7 day
# [7] = 60 mg/kg, […], dose level Low, time 14 day
# [8] = 60 mg/kg, […], dose level Low, time 28 day
compound,measurement,setting,value
CCN(CC)C(=S)SSC(=S)N(CC)CC,TERMINAL_BW,[1],228.6 g
same,APTT,[1],22.7 s
same,Bas,[1],0%
same,Eos,[1],0.8%
same,Fbg,[1],295 mg/dL
same,Hb,[1],12.5 g/dL
same,Ht,[1],38.7%
same,Lym,[1],81.8%
same,MCH,[1],20.5 pg
same,MCHC,[1],32.2%
same,MCV,[1],63.6 fL
same,Mono,[1],2.4%
same,PT,[1],16.3 s
same,Plat,[1],112 x10_4/uL
same,RBC,[1],609 x10_4/ul
same,Ret,[1],7%
same,WBC,[1],78.4 x10_2/uL
same,ALP,[1],1421 IU/L
same,ALT,[1],42.6 IU/L
same,BUN,[1],17.6 mg/dL
same,CRE,[1],0.2 mg/dL
same,DBIL,[1],0 mg/dL
same,GLC,[1],192.2 mg/dL
same,IP,[1],7.8 mg/dL
same,K,[1],4.2 meq/L
same,LDH,[1],190.4 IU/L
same,Na,[1],142.6 meq/L
same,PL,[1],136.8 mg/dL
same,RALB,[1],3.1 g/dL
same,TBIL,[1],0.002 mg/dL
same,TC,[1],73.4 mg/dL
same,TG,[1],91.6 mg/dL
same,TP,[1],5.5 g/dL
same,gamma-GTP,[1],1.4 IU/L
same,TERMINAL_BW,[2],265.7 g
same,TERMINAL_BW,[3],313.3 g
same,TERMINAL_BW,[4],364.4 g
same,APTT,[2],22.1 s
same,Bas,[2],0%
same,Eos,[2],0.8%
same,Fbg,[2],315 mg/dL
same,Hb,[2],12.8 g/dL
same,Ht,[2],39.2%
same,Lym,[2],82%
same,MCH,[2],20.3 pg
same,MCHC,[2],32.6%
same,MCV,[2],62.3 fL
same,Mono,[2],2.8%
same,PT,[2],16.4 s
same,Plat,[2],116.8 x10_4/uL
same,RBC,[2],629 x10_4/ul
same,Ret,[2],6.3%
same,WBC,[2],134.5 x10_2/uL
same,APTT,[3],23.7 s
same,Bas,[3],0%
same,Eos,[3],1%
same,Fbg,[3],311.2 mg/dL
same,Hb,[3],13.9 g/dL
same,Ht,[3],41.2%
same,Lym,[3],82.4%
same,MCH,[3],20.1 pg
same,MCHC,[3],33.9%
same,MCV,[3],59.4 fL
same,Mono,[3],2%
same,Neu,[3],13.4%
same,PT,[3],16.3 s
same,Plat,[3],112 x10_4/uL
same,RBC,[3],693.4 x10_4/ul
same,Ret,[3],4.9%
same,WBC,[3],133.7 x10_2/uL
same,APTT,[4],24.8 s
same,Bas,[4],0%
same,Eos,[4],1.2%
same,Fbg,[4],321.4 mg/dL
same,Hb,[4],15.2 g/dL
same,Ht,[4],44.8%
same,Lym,[4],83.2%
same,MCH,[4],19.5 pg
same,MCHC,[4],34%
same,MCV,[4],57.5 fL
same,Mono,[4],2.2%
same,Neu,[4],12.2%
same,PT,[4],16.6 s
same,Plat,[4],98.2 x10_4/uL
same,RBC,[4],780.6 x10_4/ul
same,Ret,[4],2.8%
same,WBC,[4],121 x10_2/uL
same,ALP,[2],1448.6 IU/L
same,ALT,[2],43.6 IU/L
same,BUN,[2],17.4 mg/dL
same,CRE,[2],0.2 mg/dL
same,DBIL,[2],0 mg/dL
same,GLC,[2],203.8 mg/dL
same,IP,[2],7.9 mg/dL
same,K,[2],4.5 meq/L
same,LDH,[2],223 IU/L
same,Na,[2],142 meq/L
same,PL,[2],138.4 mg/dL
same,RALB,[2],3.1 g/dL
same,TBIL,[2],0.008 mg/dL
same,TC,[2],71.4 mg/dL
same,TG,[2],106.6 mg/dL
same,TP,[2],5.5 g/dL
same,gamma-GTP,[2],2.2 IU/L
same,ALP,[3],1430.8 IU/L
same,ALT,[3],45 IU/L
same,BUN,[3],20.8 mg/dL
same,CRE,[3],0.2 mg/dL
same,DBIL,[3],0 mg/dL
same,GLC,[3],204.2 mg/dL
same,IP,[3],7.4 mg/dL
same,K,[3],4.4 meq/L
same,LDH,[3],167 IU/L
same,Na,[3],141.2 meq/L
same,PL,[3],143 mg/dL
same,RALB,[3],3.2 g/dL
same,TBIL,[3],0 mg/dL
same,TC,[3],73.6 mg/dL
same,TG,[3],91.4 mg/dL
same,TP,[3],5.8 g/dL
same,gamma-GTP,[3],2.6 IU/L
same,ALP,[4],1127.4 IU/L
same,ALT,[4],35 IU/L
same,BUN,[4],18.4 mg/dL
same,CRE,[4],0.2 mg/dL
same,DBIL,[4],0 mg/dL
same,GLC,[4],202.8 mg/dL
same,IP,[4],6.8 mg/dL
same,K,[4],4 meq/L
same,LDH,[4],154.8 IU/L
same,Na,[4],143.2 meq/L
same,PL,[4],145 mg/dL
same,RALB,[4],3.2 g/dL
same,TBIL,[4],0.014 mg/dL
same,TC,[4],76 mg/dL
same,TG,[4],113.4 mg/dL
same,TP,[4],6 g/dL
same,gamma-GTP,[4],2.6 IU/L
same,TERMINAL_BW,[5],224.7 g
same,APTT,[5],21.1 s
same,Bas,[5],0%
same,Eos,[5],0.6%
same,Fbg,[5],308.2 mg/dL
same,Hb,[5],12.3 g/dL
same,Ht,[5],38.1%
same,MCH,[5],19.7 pg
same,MCHC,[5],32.2%
same,MCV,[5],61.2 fL
same,Mono,[5],2.2%
same,PT,[5],15.9 s
same,Plat,[5],113.7 x10_4/uL
same,RBC,[5],624.4 x10_4/ul
same,Ret,[5],4.6%
same,WBC,[5],88.7 x10_2/uL
same,ALP,[5],1308.8 IU/L
same,ALT,[5],45.4 IU/L
same,BUN,[5],17.8 mg/dL
same,CRE,[5],0.2 mg/dL
same,DBIL,[5],0 mg/dL
same,GLC,[5],178.8 mg/dL
same,IP,[5],7 mg/dL
same,K,[5],4.1 meq/L
same,LDH,[5],188 IU/L
same,Na,[5],143.6 meq/L
same,PL,[5],151.6 mg/dL
same,RALB,[5],3.1 g/dL
same,TBIL,[5],0.004 mg/dL
same,TC,[5],86.2 mg/dL
same,TG,[5],83 mg/dL
same,TP,[5],5.5 g/dL
same,gamma-GTP,[5],1.6 IU/L
same,TERMINAL_BW,[6],255.2 g
same,TERMINAL_BW,[7],296.1 g
same,TERMINAL_BW,[8],358.2 g
same,APTT,[6],21.7 s
same,Bas,[6],0%
same,Eos,[6],0.6%
same,Fbg,[6],312.8 mg/dL
same,Hb,[6],12.4 g/dL
same,Ht,[6],38.4%
same,MCH,[6],20.1 pg
same,MCHC,[6],32.3%
same,MCV,[6],62.1 fL
same,Mono,[6],2.4%
same,PT,[6],16 s
same,Plat,[6],129.8 x10_4/uL
same,RBC,[6],620.4 x10_4/ul
same,Ret,[6],7.5%
same,WBC,[6],137.8 x10_2/uL
same,APTT,[7],23.8 s
same,Bas,[7],0%
same,Eos,[7],1%
same,Fbg,[7],319.4 mg/dL
same,Hb,[7],13.9 g/dL
same,Ht,[7],40.9%
same,MCH,[7],19.7 pg
same,MCHC,[7],33.8%
same,MCV,[7],58.2 fL
same,Mono,[7],2.8%
same,PT,[7],16.1 s
same,Plat,[7],124.6 x10_4/uL
same,RBC,[7],704.6 x10_4/ul
same,Ret,[7],5.1%
same,WBC,[7],126 x10_2/uL
same,APTT,[8],24 s
same,Bas,[8],0%
same,Eos,[8],1%
same,Fbg,[8],329.2 mg/dL
same,Hb,[8],14.2 g/dL
same,Ht,[8],41.1%
same,MCH,[8],19.2 pg
same,MCHC,[8],34.7%
same,MCV,[8],55.4 fL
same,Mono,[8],2.2%
same,PT,[8],16.5 s
same,Plat,[8],108.8 x10_4/uL
same,RBC,[8],742.2 x10_4/ul
same,Ret,[8],3.3%
same,WBC,[8],116.8 x10_2/uL
same,ALP,[6],991.6 IU/L
same,ALT,[6],37.4 IU/L
same,BUN,[6],16.8 mg/dL
same,CRE,[6],0.2 mg/dL
same,DBIL,[6],0 mg/dL
same,GLC,[6],183 mg/dL
same,IP,[6],7 mg/dL
same,K,[6],4.4 meq/L
same,LDH,[6],217.8 IU/L
same,Na,[6],143.6 meq/L
same,PL,[6],142.4 mg/dL
same,RALB,[6],3 g/dL
same,TBIL,[6],0.012 mg/dL
same,TC,[6],78.4 mg/dL
same,TG,[6],64.2 mg/dL
same,TP,[6],5.5 g/dL
same,gamma-GTP,[6],1.8 IU/L
same,ALP,[7],1244.8 IU/L
same,ALT,[7],37.6 IU/L
same,BUN,[7],18.6 mg/dL
same,CRE,[7],0.2 mg/dL
same,DBIL,[7],0 mg/dL
same,GLC,[7],178 mg/dL
same,IP,[7],6.2 mg/dL
same,K,[7],4.1 meq/L
same,LDH,[7],146.8 IU/L
same,Na,[7],142 meq/L
same,PL,[7],165.2 mg/dL
same,RALB,[7],3.2 g/dL
same,TBIL,[7],0.004 mg/dL
same,TC,[7],92.4 mg/dL
same,TG,[7],70.6 mg/dL
same,TP,[7],5.9 g/dL
same,gamma-GTP,[7],2.8 IU/L
same,ALP,[8],808.4 IU/L
same,ALT,[8],36 IU/L
same,CRE,[8],0.2 mg/dL
same,DBIL,[8],0 mg/dL
same,GLC,[8],183.4 mg/dL
same,IP,[8],5.8 mg/dL
same,K,[8],4 meq/L
same,LDH,[8],106.2 IU/L
same,Na,[8],142.4 meq/L
same,PL,[8],150.2 mg/dL
same,RALB,[8],3 g/dL
same,TBIL,[8],0.018 mg/dL
same,TC,[8],87.2 mg/dL
